The results in this text go back to patent US10399924B2, “Deuterium substituted fumarate derivatives” (Biogen MA Inc., priority 2012, dated 2019).

Series [1] has as its system Nrf2-Keap1 Pathway. Put plainly: DiscoverRx PathHunter Nrf2-Keap1 nuclear translocation biosensor assay. The following applies: agonist mode, 6 hours incubation at room temperature; read-out: Nrf2 activation EC50. The format is cell-based. The source says: The PathHunter® Nuclear Translocation assay detects translocation of a target protein to, or from, the nucleus. In this system, Prolink™ (PK), a small enzyme fragment, is fused to the protein of interest and Enzyme Acceptor (EA) is localized in the nucleus. Activation of the signaling pathway induces the target protein to either transit into the nucleus, thus forcing complementation of the PK and EA fragments, or out of the nucleus, hindering complementation of the fragments. PathHunter Pathway cell lines were expanded from freezer stocks according to standard procedures. 5000 cells were seeded in Cell Plating Reagent 0 (containing 1% FBS) to a total volume of 20 μL into white walled, 384-well microplates and incubated for the overnight prior to testing. For Agonist determination, cells were incubated with sample to induce response. Dilution of sample stocks was performed to generate 100× sample in DMSO. […] Vehicle concentration was 1%. Assay signal was generated through a single addition of 25 μL (100% v/v) of PathHunter Flash Detection reagent, followed by a one hour incubation at room temperature. Microplates were read following signal generation with a PerkinElmer Envision™ instrument for chemiluminescent signal detection. Compound activity was analyzed using CBIS data analysis suite (ChemInnovation, CA). For agonist mode assays, percentage activity was calculated using the following formula: % Activity=100%×(mean RLU of test sample−mean RLU of vehicle control)/(mean MAX RLU control ligand−mean RLU of vehicle control).

Series [2] is described as follows: Oral cassette co-administration PK with DMF in male SD rats (plasma, LC/MS/MS). Particulars: equivalent oral dose of 50 mg/kg of DMF, same study.
The test system of series [3] is Nrf2 (ARE-luciferase reporter), DLD-1/ARE-E2. Put plainly: ARE-luciferase reporter assay of Nrf2 activation, DLD-1/ARE-E2 cells. In kind it is cell-based, human. The following applies: summary for DLD-1 and MCF-7 reporter cell lines. How it is done: Human cancer cell line DLD-1 and breast cancer cell line MCF7 reporter stable cell lines were generated by transfection with a firefly luciferase reporter construct harboring the luciferase cDNA cloned downstream of eight catenated copies of the antioxidant response element ([…] ID NO.:1). See Wang et al. Cancer Res. 2006; 66:10983-94. To measure Nrf2 activation in the ARE-luciferase reporter cell lines, the cells were plated in 96-well plates at 20-50 k cells/well 24 hours prior to stimulation with the test compounds. […] The reporter cells were harvested 24 hours-48 hours after addition of the compounds and lysed for detection of luciferase activity. Luciferase activity in the lysates was monitored using the Bright-Glo Luciferase Assay System of Promega and Tecan Genios Pro plate reader. Luciferase induction in the compound-treated cells was calculated as fold change over the baseline activity detected in control cultures treated with DMSO-containing media.

Series [4] is described as follows: Oral PK at 100 mg/kg in male SD rats. The following applies: in vivo, rat, read-out: half-life of MMF (converted). How it is done:
The concentration of the compounds was determined by LC/MS/MS. […] The concentration of D-MMF was determined by LC/MS/MS. […] The concentration of D-MMF was determined by LC/MS/MS.

Where a name gives a salt, the structure may show the parent alone. Read-outs that look alike come from different tables or passages of the source.

As for `COC(=O)/C=C/C(=O)OC` [DMF, dimethyl fumarate, reference compound], in series [1], the EC50 was 5.4 µM.

Regarding `O=C(O)/C=C/C(=O)O.[2H]C([2H])([2H])OC(=O)/C=C/C(=O)OC([2H])([2H])[2H]` [Example 1, (^2H6)dimethyl Fumaric Acid Ester], in series [2], the “oral exposure compared to DMF” value is given as “higher oral exposure”. The EC50 in series [1] was 6.57 µM. In addition, the “activation of ARE-dependent signaling of the luciferase reporter construct” value in series [3] is “able to activate ARE-dependent signaling”.

In the case of `O=C(O)/C=C/C(=O)O.[2H]C([2H])([2H])OC(=O)/C=C/C(=O)O` [Example 2, (^2H3)methyl Fumaric Acid Ester], in series [3], the “activation of ARE-dependent signaling of the luciferase reporter construct” value is “able to activate ARE-dependent signaling”.

`[2H]/C(C(=O)OC)=C(/[2H])C(=O)OC` [Example 4]: in series [2], the “oral exposure compared to DMF” value was “higher oral exposure”. The EC50 in series [1] was determined as 4.78 µM.

On to `[2H]/C(C(=O)O)=C(/[2H])C(=O)O.[2H]/C(C(=O)OC([2H])([2H])[2H])=C(/[2H])C(=O)OC([2H])([2H])[2H]` [Example 8], for which the “oral exposure compared to DMF” value in series [2] is recorded as “higher oral exposure”. Further, in series [1], the EC50 came to 7.97 µM.

Consider `COC(=O)/C=C/C(=O)O` [MMF, monomethyl fumarate], for which the half-life in series [4] (male, SD, 100 mg/Kg oral dose) is 54 min; in series [4] (oral, 100 mg/Kg, species not stated for this figure) it was around 60 min.

What is called EC50 is the midpoint of the concentration-response curve. What is called half-life is the time needed for the level to fall by half in the phase considered.
